Patent US6841169B2, “Stabilizer for pharmacons” (Rijksuniversiteit Groningen, priority 2001, dated 2005)

Legend:
[1] = Freeze-drying at a sample temperature of −16° C. (cake formation); type: physicochemical; details: sample temperature −16° C.
Protocol: This last was tested in experiments with trehalose and inulin. Freeze-drying was done at a sample temperature of −16° C. […] Accordingly, inulin can be freeze-dried under less stringent conditions.

alkaline phosphatase = details: for Activity alkaline phosphatase after freeze-drying and 6 days at 0% RH and 60° C.: alkaline phosphatase to stabilizer 1 to 9, average of 4 independent experiments; for Activity alkaline phosphatase directly after freeze drying: alkaline phosphatase to stabilizer 1 to 9 by weight, average of 2 independent experiments
Protocol: Alkaline phosphatase with and without stabilizer was dissolved in a 0.05 M 2-amino-2-methyl-1,3-propanediol solution in water, pH 9.8. The concentration of alkaline phosphatase was 2.5 mg/mL in all cases. […] Trehalose and glucose were used as positive and negative control, respectively. The weight ratio of alkaline phosphatase to stabilizer was 1 to 9 in all cases. Of the solutions, 2 mL were transferred to glass sample vessels of a diameter of about 2 cm. The sample vessels were transferred to liquid nitrogen. After the solution had frozen completely, the sample vessels were transferred to a Christ freeze-drier, model Alpha 2-4, at a plate temperature of −30° C., followed by freeze-drying at a condenser temperature of −53° C. and a pressure of 0.220 mbar for 18 hours. Then, during 6 hours, the plate temperature and the pressure were gradually raised to 20° C. and 0.520 mbar, respectively. Thereafter the freeze-drying process was continued for 20 more hours.
Two series of experiments were carried out. In the first series, the samples were left to stand for 6 days at 0% relative humidity (RH) and 60° C., whereafter the activity of the protein was determined. In the second series of experiments, the samples were left to stand in an exsiccator above silica gel (0% RH) or in controlled-climate cabinets (45% and 60% RH) at 20° C. At different times, the activity of the protein was determined.
The activity of alkaline phosphatase was determined as follows. The freeze-dried samples were reconstituted with water. To 50 μl of the solution obtained, there were added 905 μL of a 0.05 M 2-amino-2-methyl-1,3-propanediol solution in water, pH 9.8, and 20 μL of a 100 mM MgCl2 solution in water. Next, 50 μL of a freshly prepared solution of 10 mg phosphatase substrate (para-nitrophenyl phosphate) per mL water were added. The mixture was vortexed and then incubated at 37° C. After 30 minutes, the reaction was stopped by addition of 5.0 mL of a 0.1 N solution of NaOH in water. The extinction of the solution obtained was measured at 405 nm. A calibration line was made using freshly prepared solutions of alkaline phosphatase in 0.05 M 2-amino-2-methyl-1,3-propanediol in water, pH 9.8, of known concentrations.

[2] = from scientific publications; cited from earlier work
[3] = Storage of sugar glasses at 20° C. at raised relative air humidity (deliquescence); type: physicochemical; details: 45% relative air humidity
Source text: In practice, a sugar glass will never be completely anhydrous. This is for instance the consequence of uptake of water from the air. […] The extent of water uptake depends on the hygroscopicity of the material and of the relative degree of air humidity.

With `OC[C@H]1O[C@H](O[C@H]2O[C@H](CO)[C@@H](O)[C@H](O)[C@H]2O)[C@H](O)[C@@H](O)[C@@H]1O` [Trehalose] the “Cake obtained on freeze-drying” value [1] was “collapsed cake”, the “Activity alkaline phosphatase after freeze-drying and 6 days at 0% RH and 60° C.” value (alkaline phosphatase) was −1.4 ± 2.8% and the “Activity alkaline phosphatase directly after freeze drying” value (alkaline phosphatase) was 95.9 ± 11.5%. For the same compound, the “Activity of the protein after 6 days of storage at 0% RH and 60° C. (in words)” value (alkaline phosphatase; freeze-dried samples) was “gone completely”, the “Tg (glass transition temperature)” value [2] was ~120 °C and the “Behaviour of glass exposed to relative air humidity of 45%” value [3] was “first deliquesced (that is, the Tg falls below 20° C.) and then crystallized”.

With `O=C[C@H](O)[C@@H](O)[C@H](O)[C@H](O)CO` [Glucose] the “Activity alkaline phosphatase after freeze-drying and 6 days at 0% RH and 60° C.” value (alkaline phosphatase) was 0.8 ± 4.5%, the “Activity alkaline phosphatase directly after freeze drying” value (alkaline phosphatase) was 110.3 ± 10.6% and the “Activity of the protein after 4 weeks at 45% RH (in words)” value (alkaline phosphatase; freeze-dried samples, 4 weeks, 45% RH, 20° C.) was “substantial decrease of the activity”. The “Activity of alkaline phosphatase after 4 weeks at 45% RH” value (alkaline phosphatase; freeze-dried samples, 4 weeks, 45% RH, 20° C., FIG. II) was 57.9±3.1%, the “Activity of the protein after 4 weeks at 60% RH (in words)” value (alkaline phosphatase; freeze-dried samples, 4 weeks, 60% RH, 20° C.) was “substantial decrease of the activity” and the “Activity of alkaline phosphatase after four weeks at 60% RH” value (alkaline phosphatase; freeze-dried samples, 4 weeks, 60% RH, 20° C., FIG. III) was 46.3±16.1%. For the same compound, the “Activity of the protein after 6 days of storage at 0% RH and 60° C. (in words)” value (alkaline phosphatase; freeze-dried samples) was “gone completely”.
